Measured values taken from patent publication US11260050B2, “Combination of cotinine plus antioxidant for treatment-resistant depression and correction of astrocytes functional deficit induced by depression and other neuropathological” (UNIVERSIDAD SAN SEBASTIAN, priority 2017, dated 2022).

Legend:
[1] = test system: mice subjected to restraint stress; assay: Open field test after restraint stress (Example 1, Experiment 1); assay type: in vivo, C57BL/6 mice; settings: RS mice, IN cotinine 10 mg/ml, 25 min of testing; p=0.058
Protocol: (§1) Mice were treated immediately after the 21 days of immobilization stress (6 h/day) until euthanasia. Mice (n=5-8/condition) received daily treatments with 1. PBS (phosphate buffer saline, pH 7.4) via intranasal (2×12 μl/nostril), 2. PBS via gavage (50 μl); 3. Cotinine dissolved in PBS via oral (gavage, (0.5 mg/kg; Cot 0.5); 4. Cotinine dissolved in PBS via intranasal (Cot IN, 10 mg/ml, 2×12 μl/nostril).
(§2) To induce chronic stress, the restraint stress paradigm was used as previously described. Mice are immobilized in 50 ml falcon plastic tubes that were attached to mouse cages. The immobilization proceeded during 6 h from 9:00 AM to 3:00 PM in absence of treatments. Tubes have holes in the opposite side of the tube to allow the animal breathing and urination. Mice were almost completely immobilized for 6 h/day for 21 days after which they were permitted freely to move, eat and drink.
OF is used to monitor locomotor activity. […] Several parameters including, total distance traveled, speed, rearing behavior and time spent in the center and peripheral zones (20 cm×20 cm) are measured to assess locomotor activity and behavioral changes induced by stress.

[2] = test system: mice subjected to restraint stress; assay: Porsolt test after restraint stress, intranasal post-treatment (Example 1, Experiment 1); assay type: in vivo, C57BL/6 mice; settings: RS mice post-treated with cotinine via IN; p<0.01
Protocol: as §1, §2
This test is used to measure the antidepressant effects of drugs, and consists in placing each mouse in a transparent cylinder filled with water at room temperature (RT). After a brief period of strong activity, rodents adopt a characteristic immobile posture. The time mice spent immobile is a measure of depressive-like behavior. The immobility time will be recorded during a 15-min and a next day 5-min trial. The time spent by each mouse immobile will be recorded.

[3] = test system: mice subjected to fear conditioning; assay: Novel object recognition after fear conditioning (Example 1, Experiment 3); assay type: in vivo, C57BL/6 mice; settings: FC mice, IN post-treatment
Protocol: (§3) Mice were treated via IN 2 hours after fear conditioning and continuously until euthanasia.
(§4) Mice (n=5-6/condition) received daily treatments with 1. PBS (phosphate buffer saline, pH 7.4) via intranasal (2×12 μl/nostril), 2. Cotinine dissolved in PBS via intranasal (Cot IN, 10 mg/ml, 2×12 μl/nostril); 3. Cotinine+krill oil both dissolved in PBS via intranasal (Cot IN, 10 mg/ml+KO, 48 mg/ml, 2×12 μl/nostril).
(§5) Contextual FC was performed as described. The conditioning chamber used is surrounded by a sound-attenuating box with a camera connected to freeze frame software (MED Associates Inc.), also equipped to provide a background white noise (72 dB). The conditioning chamber (33 cm×20 cm×22 cm) contains in one side a speaker and in the opposite slide has a 24V light. The chamber has a 36-bar insulated shock grid floor. […] Freezing behavior that is defined as the absence of all movement except the one needed for breathing was assessed using the FreezeView Software (MED Associates Inc.).
After a habituation step in the OF arena, each mouse was individually placed in the apparatus containing two identical objects located equidistant to each other (familiarization phase) and left to explore the objects for 5 min. […] The time exploring the two objects was recorded during 5 min. […]

[4] = test system: mice subjected to fear conditioning; assay: Porsolt test after fear conditioning (Example 1, Experiment 3); assay type: in vivo, C57BL/6 mice; settings: FC mice, IN post-treatment; cotinine p<0.01, combination p<0.05
Protocol: as §3, §4, §5
This test is used to measure the antidepressant effects of drugs, and consists in placing each mouse in a transparent cylinder filled with water at room temperature (RT). […] The immobility time will be recorded during a 15-min and a next day 5-min trial. The time spent by each mouse immobile will be recorded.

[5] = test system: mice subjected to fear conditioning; assay: Elevated plus maze after fear conditioning (Example 1, Experiment 3); assay type: in vivo, C57BL/6 mice; settings: FC mice, IN post-treatment; Veh 68.14±5.573, N=5
Protocol: as §3, §4
Contextual FC was performed as described. The conditioning chamber used is surrounded by a sound-attenuating box with a camera connected to freeze frame software (MED Associates Inc.), also equipped to provide a background white noise (72 dB). The conditioning chamber (33 cm×20 cm×22 cm) contains in one side a speaker and in the opposite slide has a 24V light. The chamber has a 36-bar insulated shock grid floor. Mice were placed in the conditioning chamber for 2 min before the onset of a discrete tone (a sound that will last 30 seconds (sec) at 2,800 Hz and 85 dB). In the last two seconds of this tone, mice received a foot shock of 1 mA and kept in the conditioning chamber for 2 min and then returned to their cages. Between trials, the chamber was sanitized with 70% ethanol and dried. Freezing behavior that is defined as the absence of all movement except the one needed for breathing was assessed using the FreezeView Software (MED Associates Inc.). […]

restrained mice = assay: Open field test, oral co-treatment during restraint stress (Example 3); assay type: in vivo, C57BL/6J mice; settings: oral cotinine 5 mg/kg, KO 143 mg/kg or both, 25 min
Protocol: Mice after acclimatization and one week of handling were randomly divided into five groups (n=8/condition) and orally treated as follow: 1) control non-restrained mice treated with vehicle (PBS, pH 7.4); 2) restrained mice treated with vehicle; 3), restrained mice treated with a cotinine solution (5 mg/kg in PBS, pH 7.4) via gavage; 4) restrained mice treated with KO (143 mg/kg); 5) restrained mice treated with cotinine plus KO solution. Mice were started with treatments, the first day of restraint and continuously until euthanasia. Treatments were administered at the same time of the day, 30 min before restraint. After 21 days into treatments, mice were behaviorally tested (FIG. 17).
Restraint stress (RS) was used as a model of chronic stress-induced depressive-like behavior and cognitive impairment. We used this task because is a reliable method that mimics the effects of chronic stress without causing physical pain or unnecessary discomfort to the mice. Mice were gently introduced into a 50-ml conical transparent plastic tubes (Corning Inc.). […]
The open field (OF) test was conducted as previously described with minor modifications to identify changes in locomotor activity in response to stress and/or drug treatments. […] Total distance traveled, and time spent in the center zone were measured under moderate lighting using the video tracking software (ANY-Maze, Stoelting Co.).

mice = settings: absence of stress, cotinine treatment for up to eight months; cited from earlier work

Compound: CN1C(=O)CC[C@H]1c1cccnc1 [Cotinine, (5S)-1-methyl-5-(3-pyridyl) pyrrolidin-2-one]
- distance traveled in the open field test [1]: 44±18 m
- depressive-like behavior (freezing/immobility) in the Porsolt test [2]: significant decrease in depressive-like behavior
- number of entries to the new object area (NOR) ([3]; Cotinine p<0.05, Cotinine+KO p<0.01): higher number of entries to the new object area than PBS-treated FC mice
- time exploring the new object (NOR) ([3]; both p<0.05): spent more time than PBS-treated FC mice
- depressive-like behavior (freezing) in the Porsolt test [4]: significant decrease in depressive-like behavior
- time spent in the open arms (EPM) [5]: increase in the time spent in the open arms but the difference did not reached significance
- locomotor activity in the open field (distance traveled, speed) (restrained mice): no significant changes in locomotor activity
- sensory motor abilities or anxiety (mice): did not induce significant differences in sensory motor abilities or anxiety
